Measured values published in US20250230155A1 (Vanderbilt University, priority 2021, published 2025).
pEC50: −log10 of the molar value.

Target: T1, human mAChR M4 (Homo sapiens, UniProt P08173)
T1 construct: expressed in transfected cells
T1 sequence (P08173 1-479): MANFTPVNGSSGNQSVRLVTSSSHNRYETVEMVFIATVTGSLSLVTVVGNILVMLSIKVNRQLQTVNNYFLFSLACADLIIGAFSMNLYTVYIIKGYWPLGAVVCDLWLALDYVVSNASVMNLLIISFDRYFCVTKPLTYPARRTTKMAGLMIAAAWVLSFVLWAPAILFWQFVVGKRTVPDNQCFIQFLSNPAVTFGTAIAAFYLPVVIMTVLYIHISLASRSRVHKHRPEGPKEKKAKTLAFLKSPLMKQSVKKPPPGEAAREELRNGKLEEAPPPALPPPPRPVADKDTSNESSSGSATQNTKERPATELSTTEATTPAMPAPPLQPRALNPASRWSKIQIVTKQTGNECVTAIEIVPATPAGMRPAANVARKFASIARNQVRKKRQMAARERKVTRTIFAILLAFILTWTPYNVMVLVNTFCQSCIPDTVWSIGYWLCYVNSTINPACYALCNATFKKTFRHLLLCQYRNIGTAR
Assay: mAChR M4 cell-based functional assay (calcium mobilization, CHO-K1 hM4-Gqi5 cells)
Details: for Emax at 30 µM: CHO-K1, % ACh maximum at 30 μM, human M4; for pEC50: positive allosteric modulator activity, increase in the EC20 acetylcholine response, CHO-K1 hM4-Gqi5 cells, read-out: Human M4 EC50
How it was run: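 Fluorescent calcium read-out (Fluo-4 AM, FDSS, 1 Hz) in hM4-Gqi5 CHO-K1 cells, 11-point 1:3 compound series. Agonism scored on compound addition, PAM activity as increase of the 144 s EC20 acetylcholine response, antagonism as decrease of the 230 s EC80 response; four-parameter logistic fits give EC50 and Emax.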

COc1cc(CNC(=O)c2cnc(N3CCc4ncccc4C3)c(C)c2)ccc1F [compound 152, 6-(7,8-dihydro-5H-1,6-naphthyridin-6-yl)-N-[(4-fluoro-3-methoxy-phenyl)methyl]-5-methyl-pyridine-3-carboxamide]
Emax at 30 µM: 64% | pEC50: 5.67

Cc1cc(C(=O)N2CC(C(F)F)C2)nnc1N1CCc2ncc(C(F)(F)F)cc2C1 [Example 522, (3-(difluoromethyl)azetidin-1-yl)(5-methyl-6-(3-(trifluoromethyl)-7,8-dihydro-1,6-naphthyridin-6(5H)-yl)pyridazin-3-yl)methanone]
Emax at 30 µM: 109% | pEC50: 6.77

Cc1cc(C#N)cnc1N1CCc2ncc(N3CCO[C@H](c4ccccc4)C3)cc2C1 [Example 375, (R)-5-methyl-6-(3-(2-phenylmorpholino)-7,8-dihydro-1,6-naphthyridin-6(5H)-yl)nicotinonitrile]
Emax at 30 µM: 85% | pEC50: 5.88

Cc1c(C(=O)NCc2cccnc2)nnc(N2CCc3ncccc3C2)c1C [compound 136, 6-(7,8-dihydro-5H-1,6-naphthyridin-6-yl)-4,5-dimethyl-N-(3-pyridylmethyl)pyridazine-3-carboxamide]
Emax at 30 µM: 88% | pEC50: 5.73

Cc1cnc2c(c1)CN(c1nnc(C(=O)NCc3cncs3)c(C)c1C)CC2 [Example 468, 4,5-dimethyl-6-(3-methyl-7,8-dihydro-1,6-naphthyridin-6(5H)-yl)-N-(thiazol-5-ylmethyl)pyridazine-3-carboxamide]
Emax at 30 µM: 108% | pEC50: 6.92

Clc1nc2c(c(N3CCc4ncc(N5CCOc6ncccc65)cc4C3)n1)COC2 [compound 283, 1-(6-(2-chloro-5,7-dihydrofuro[3,4-d]pyrimidin-4-yl)-5,6,7,8-tetrahydro-1,6-naphthyridin-3-yl)-2,3-dihydro-1H-pyrido[2,3-b][1,4]oxazine]
pEC50: 6.43

Cc1cc(C(=O)N2CC(C)(C#N)C2)nnc1N1CCc2ncc(N3CCCn4nccc43)cc2C1 [Example 519, 1-(6-(3-(6,7-dihydropyrazolo[1,5-a]pyrimidin-4(5H)-yl)-7,8-dihydro-1,6-naphthyridin-6(5H)-yl)-5-methylpyridazine-3-carbonyl)-3-methylazetidine-3-carbonitrile]
Emax at 30 µM: 80% | pEC50: 7.85

Cc1c(C#N)nnc(N2CCc3ncc(Nc4ccccc4OC(F)(F)F)cc3C2)c1C [compound 44, 4,5-dimethyl-6-[3-[2-(trifluoromethoxy)anilino]-7,8-dihydro-5H-1,6-naphthyridin-6-yl]pyridazine-3-carbonitrile]
Emax at 30 µM: 40% | pEC50: 5.73

Cc1c(C#N)nnc(N2CCc3ncc(N4CCOC(c5cccnc5)C4)cc3C2)c1C (stereo not drawn) [Example 388, 4,5-dimethyl-6-(3-(2-(pyridin-3-yl)morpholino)-7,8-dihydro-1,6-naphthyridin-6(5H)-yl)pyridazine-3-carbonitrile]
Emax at 30 µM: 83% | pEC50: 5.90

Cc1cc(C#N)cnc1N1CCc2ncc(-c3ccc(N(C)C)nc3)cc2C1 [Example 318, 6-(3-(6-(dimethylamino)pyridin-3-yl)-7,8-dihydro-1,6-naphthyridin-6(5H)-yl)-5-methylnicotinonitrile]
Emax at 30 µM: 74% | pEC50: 6.33

Cc1cc(C(=O)N2CC(C)(O)C2)nnc1N1CCc2ncc(N3CCO[C@H](C)C3)cc2C1 [Example 540, (R)-(3-hydroxy-3-methylazetidin-1-yl)(5-methyl-6-(3-(2-methylmorpholino)-7,8-dihydro-1,6-naphthyridin-6(5H)-yl)pyridazin-3-yl)methanone]
Emax at 30 µM: 100% | pEC50: 6.57

[2H]C([2H])([2H])c1cnc2c(c1)CN(c1nnc(C(=O)N3CC4(COC4)C3)cc1C)CC2 [Example 577, (5-methyl-6-(3-(methyl-d3)-7,8-dihydro-1,6-naphthyridin-6(5H)-yl)pyridazin-3-yl)(2-oxa-6-azaspiro[3.3]heptan-6-yl)methanone]
Emax at 30 µM: 70% | pEC50: 6.96

Cc1cc(C(=O)NCc2ccno2)cnc1N1CCc2ncccc2C1 [compound 123, 6-(7,8-dihydro-5H-1,6-naphthyridin-6-yl)-N-(isoxazol-5-ylmethyl)-5-methyl-pyridine-3-carboxamide]
Emax at 30 µM: 82% | pEC50: ≤ 5.00

Cc1c(C#N)nnc(N2CCc3ncc(Nc4cc(Cl)cnc4F)cc3C2)c1C [compound 82, 6-[3-[(5-chloro-2-fluoro-3-pyridyl)amino]-7,8-dihydro-5H-1,6-naphthyridin-6-yl]-4,5-dimethyl-pyridazine-3-carbonitrile]
Emax at 30 µM: 82% | pEC50: 6.80

CNC(=O)c1cnc(N2CCc3ncccc3C2)c(C)c1 [compound 57, 6-(7,8-dihydro-5H-1,6-naphthyridin-6-yl)-N,5-dimethyl-pyridine-3-carboxamide]
Emax (CHO-K1): 63% | pEC50: ≤ 5.00

Cc1cc(C(=O)N2CCN(C)CC2)nnc1N1CCc2ncc(N3CCCn4nccc43)cc2C1 [Example 514, (6-(3-(6,7-dihydropyrazolo[1,5-a]pyrimidin-4(5H)-yl)-7,8-dihydro-1,6-naphthyridin-6(5H)-yl)-5-methylpyridazin-3-yl)(4-methylpiperazin-1-yl)methanone]
Emax at 30 µM: 103% | pEC50: 6.20

Cc1cc(C(=O)NCc2ccc(-n3cccn3)cc2)cnc1N1CCc2ncccc2C1 [compound 67, 6-(7,8-dihydro-5H-1,6-naphthyridin-6-yl)-5-methyl-N-[(4-pyrazol-1-ylphenyl)methyl]pyridine-3-carboxamide]
Emax at 30 µM: 55% | pEC50: 5.71

Cc1c(C#N)nnc(N2CCc3ncc(Nc4cccnc4F)cc3C2)c1C [compound 119, 6-[3-[(2-fluoro-3-pyridyl)amino]-7,8-dihydro-5H-1,6-naphthyridin-6-yl]-4,5-dimethyl-pyridazine-3-carbonitrile]
Emax at 30 µM: 82% | pEC50: 6.72

Cc1cc(C#N)cnc1N1CCc2ncc(-c3cnn(-c4ccc(F)cc4)c3)cc2C1 [compound 106, 6-[3-[1-(4-fluorophenyl)pyrazol-4-yl]-7,8-dihydro-5H-1,6-naphthyridin-6-yl]-5-methyl-pyridine-3-carbonitrile]
Emax at 30 µM: 33% | pEC50: 5.94

Cc1nc(Cl)c(C)c(N2CCc3ncc(-c4c(C)noc4C)cc3C2)n1 [compound 197, 4-[6-(6-chloro-2,5-dimethyl-pyrimidin-4-yl)-7,8-dihydro-5H-1,6-naphthyridin-3-yl]-3,5-dimethyl-isoxazole]
Emax at 30 µM: 92% | pEC50: 7.20

Cc1c(C#N)nnc(N2CCc3ncc(Nc4ncccc4F)cc3C2)c1C [compound 80, 6-[3-[(3-fluoro-2-pyridyl)amino]-7,8-dihydro-5H-1,6-naphthyridin-6-yl]-4,5-dimethyl-pyridazine-3-carbonitrile]
Emax at 30 µM: 72% | pEC50: 6.52

Cc1c(C#N)nnc(N2CCc3ncc(C(F)F)cc3C2)c1C [Example 308, 6-(3-(difluoromethyl)-7,8-dihydro-1,6-naphthyridin-6(5H)-yl)-4,5-dimethylpyridazine-3-carbonitrile]
Emax at 30 µM: 94% | pEC50: 6.39

Cc1ncc(-c2cnc3c(c2)CN(c2nnc(C#N)cc2C)CC3)s1 [Example 390, 5-methyl-6-(3-(2-methylthiazol-5-yl)-7,8-dihydro-1,6-naphthyridin-6(5H)-yl)pyridazine-3-carbonitrile]
Emax at 30 µM: 78% | pEC50: 6.36

CCOc1nc(N2CCc3ncc(C(F)(F)F)cc3C2)c(C)cc1C#N [Example 373, 2-ethoxy-5-methyl-6-(3-(trifluoromethyl)-7,8-dihydro-1,6-naphthyridin-6(5H)-yl)nicotinonitrile]
Emax at 30 µM: 64% | pEC50: 5.76

Cc1cc(C(=O)N2CCC2)nnc1N1CCc2ncc(N3CCO[C@H](C)C3)cc2C1 [Example 537, (R)-azetidin-1-yl(5-methyl-6-(3-(2-methylmorpholino)-7,8-dihydro-1,6-naphthyridin-6(5H)-yl)pyridazin-3-yl)methanone]
Emax at 30 µM: 96% | pEC50: 6.88

Cc1cc(C#N)cnc1N1CCc2ncc(-c3cc(F)cc(F)c3C)cc2C1 [Example 597, 6-(3-(3,5-difluoro-2-methylphenyl)-7,8-dihydro-1,6-naphthyridin-6(5H)-yl)-5-methylnicotinonitrile]
Emax at 30 µM: 69% | pEC50: 5.54

Cc1cc(C(=O)NC2(c3cccnc3)CC2)nnc1N1CCc2ncc(CC(F)(F)F)cc2C1 [Example 585, 5-methyl-N-(1-(pyridin-3-yl)cyclopropyl)-6-(3-(2,2,2-trifluoroethyl)-7,8-dihydro-1,6-naphthyridin-6(5H)-yl)pyridazine-3-carboxamide]
Emax at 30 µM: 96% | pEC50: 6.32

Cc1cc(C#N)nnc1N1CCc2ncc(C3CCC3)cc2C1 [Example 402, 6-(3-cyclobutyl-7,8-dihydro-1,6-naphthyridin-6(5H)-yl)-5-methylpyridazine-3-carbonitrile]
Emax at 30 µM: 91% | pEC50: 6.82

Cc1ccncc1-c1cnc2c(c1)CN(c1nnc(C#N)c(C)c1C)CC2 [compound 55, 4,5-dimethyl-6-[3-(4-methyl-3-pyridyl)-7,8-dihydro-5H-1,6-naphthyridin-6-yl]pyridazine-3-carbonitrile]
Emax at 30 µM: 76% | pEC50: 6.71
